In PubChem BioAssay (NCI) one finds TGI and GI50 data, which are given here for eight compounds.

Structures are written as SMILES. Values joined by “and” are separate entries in the source; they are usually repeats but may differ in a detail not shown here. Equal entries are not always repeated.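 Compound exposure: 48 hours, 5 concentrations, 96-well plates. At the GI50, growth is halved. TGI: concentration producing complete growth inhibition.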

What is called TGI is the concentration giving total growth inhibition. A higher TGI goes with less potent growth arrest. As usually defined, the GI50 is the concentration at which growth is held to half of that of the control.

Test in all cases: DTP human tumour cell line panel, 48 h
The subject of test [1] is SF-539 CNS.
Test [2] relates to SNB-75 CNS.
Test [3] deals with SR leukemia.
In test [4] the test system is OVCAR-3 ovarian.
Test [5] deals with NCI-H522 lung.
The subject of test [6] is HCT-116 colon.
The subject of test [7] is SN12C renal.
In test [8] the test system is SNB-19 CNS.
In test [9] the test system is IGROV1 ovarian.
The test system of test [10] is SK-MEL-5 melanoma.

With `COC(=O)c1c[nH]c(=O)[nH]c1=O`, the TGI in test [1], in test [2], in test [3], in test [4], in test [5] and in test [6] was above 100 µM in each case. Besides, the total growth inhibition concentration (TGI) in test [7], in [8], in test [9] and in [10] was above 100 µM throughout.

Turning to `COc1ccc(-c2oc(=O)ccc2C#Cc2cc(OC)c(OC)c(OC)c2)cc1O`, the GI50 in [1] was 20 µM; in test [2], 20.8 µM; in [3] it was 2.75 µM; in test [4], 20.9 µM; in [5], 8.7 µM; in test [6], 18.6 µM. Besides, the GI50 in test [7] is 41.5 µM; in test [8] it was 31.4 µM; in [9] it was 39.9 µM; in test [10] it was 7.55 µM. Further, the TGI is 86.2 µM in test [1]; 69.9 µM in test [2]; 33.5 µM in test [3]; 70.6 µM in [4]; 37.5 µM in test [5]; above 100 µM in [6]. Besides, the concentration for total growth inhibition (TGI) in test [7] was above 100 µM; in [8], above 100 µM; in [9], above 100 µM; in [10], 26.6 µM.

On to `Cc1ccc(S(=O)(=O)N(/N=C(\N)Oc2ccc(Cl)cc2)C(=N)Oc2ccc(Cl)cc2)cc1`, for which the TGI in [1], in test [2], in test [3], in test [4], in test [5] and in test [6] was above 100 µM each time. The TGI in test [7], in test [8], in test [9] and in [10] was above 100 µM in each case.

`Cc1ccc(Cl)cc1Nc1nc(C(F)(F)F)ccc1C(=O)Nc1cccc(C(F)(F)F)c1`: the GI50 was 3.95 µM in [1]; 3.11 µM in test [2]; 3.41 µM in test [3]; 4.18 µM in test [4]; 1.78 µM in test [5]; 2.39 µM in test [6]. The GI50 was 4.29 µM in test [7], 3.59 µM in test [8], 1.69 µM in [9] and 2.18 µM in test [10]. Also, the TGI in [1] came to 14.1 µM; in test [2], 12.3 µM; in test [3], 30.3 µM; in [4], 20.1 µM; in test [5] it was 6.37 µM; in [6], 10.3 µM. For the same compound, the concentration for total growth inhibition (TGI) came out at 18.7 µM in test [7], 14.6 µM in test [8], 13.4 µM in test [9] and 4.5 µM in test [10].

As to `O=C(/C=C/c1ccc(C(F)(F)F)cc1)c1ccc(Nc2nc(NCCO)nc(NCCO)n2)cc1`, the GI50 in test [1] was 1.68 µM; in test [2] it was 2.31 µM; in test [3], 2.3 µM; in [4] it was 2.02 µM; in test [5], 2.15 µM; in test [6], 1.79 µM. The figures for the GI50 in test [7], in [9] and in [10] were 2.71 µM, 3 µM and 3.12 µM, respectively. The concentration for total growth inhibition (TGI) in [1] is 3.38 µM; in test [2], 13.6 µM; in [3] it was 7.11 µM; in test [4], 4.19 µM; in test [5], 6.66 µM; in test [6] it was 3.9 µM. Also, the TGI in [7] came to 9.7 µM; in test [9], 9.51 µM; in test [10], 10.5 µM.

As for `O=C1C2c3[nH]c4ccccc4c3[C@@H]3CCCCCCCCCCC3C2C(=O)N1c1ccccc1` (stereo partly drawn), the TGI in test [1] came to 24.3 µM; in test [2], 6.44 µM; in test [3], 43.3 µM; in test [4], 33 µM; in test [7], 54 µM; in [8], 30.3 µM. For the same compound, the values for the concentration for total growth inhibition (TGI) in test [9] and in test [10] were 43.6 µM and above 100 µM, respectively.

With `CN(C)c1ccc(/C=C2\C[C@H]3[C@@H]4CC=C5C[C@@H](N6CCCC6)CC[C@]5(C)[C@H]4CC[C@]3(C)[C@H]2O)cc1`, the TGI in [1] was 12.8 µM; in test [2], 3.01 µM and 14.9 µM; in test [4], 2.7 µM and 4.86 µM; in test [5] it was 2.25 µM; in [6], 1.7 µM and 4.67 µM; in test [7] it was 3.3 µM and 5.6 µM. The total growth inhibition concentration (TGI) is 6.94 µM and 9.08 µM in test [8]; 2 µM and 8.53 µM in [9]; 1.62 µM and 12.7 µM in test [10]. In addition, the GI50 was 3.4 µM in test [2]; 3.04 µM in [3]; 2.06 µM in test [4]; 2.1 µM in test [6]; 2.42 µM in test [7]; 2.41 µM in [8]. The GI50 is 3.92 µM in test [9] and 3.44 µM in [10].

In the case of `C=C(C=O)C1CC(=O)C(C(=O)OC)[C@@H]2O[C@@](C)(CC2=O)C[C@@H]2OC(=O)[C@]3(O[C@@H]23)[C@@H](C(=O)OC)C1` (stereo partly drawn), the GI50 in test [1] is 18 µM; in [2] it was 31 µM; in test [3] it was 2.63 µM; in test [4], 12.8 µM; in test [5] it was 7.03 µM; in test [6], 14.7 µM. For the same compound, the GI50 in [7] was 18.7 µM; in [8], 38.3 µM; in test [9], 4.56 µM; in test [10], 17 µM. For the same compound, the total growth inhibition concentration (TGI) in test [1] was 61.2 µM; in test [2] it was above 100 µM; in [3], 7.96 µM; in [4] it was 32.8 µM; in test [5], 41.5 µM; in test [6] it was 33.6 µM. Also, the TGI is 50.4 µM in [7], above 100 µM in test [8], 48.3 µM in test [9] and 38.5 µM in test [10].
